Experimental data from ChEMBL document CHEMBL3751718, “Synthesis and biological evaluation of lipid-like 5-(2-hydroxyethyl)-4-methyl-1,3-thiazole derivatives as potential anticancer and antimicrobial agents” (Medchemcomm, 2015).
In brackets after ≈: the same amount, converted by molar mass. Activity calls are given as the source filed them. The calls are words filed in the database; no cut-off is given here.

Assays:
Escherichia coli [1] = assay: Antibacterial activity against Escherichia coli MSCL 332 at 2 mg/ml after 24 hrs by agar dish diffusion method; format: functional, organism-based
Bacillus cereus [2] = assay: Antibacterial activity against Bacillus cereus MSCL 330 at 2 mg/ml after 24 hrs by agar dish diffusion method; format: functional, organism-based
Candida albicans [3] = assay: Antifungal activity against Candida albicans MSCL 378 after 24 hrs by broth dilution method; format: functional; details: MSCL 378, 24 h
Aspergillus niger [4] = assay: Fungicidal activity against Aspergillus niger MSCL 324 incubated for 24 hrs followed by colony transfer to agar plates for 24 hrs by colony counting based assay; format: functional; details: MSCL 324, 24 h, read-out: MFC99.9
Aspergillus niger [5] = assay: Antifungal activity against Aspergillus niger MSCL 324 at 4 mg/ml after 48 hrs by agar dish diffusion method; format: functional; details: MSCL 324, 48 h, read-out: DIZ
Bacillus cereus [6] = assay: Antibacterial activity against Bacillus cereus MSCL 330 at 4 mg/ml after 24 hrs by agar dish diffusion method; format: functional, organism-based
Pseudomonas aeruginosa [7] = assay: Antibacterial activity against Pseudomonas aeruginosa MSCL 331 at 2 mg/ml after 24 hrs by agar dish diffusion method; format: functional, organism-based
Escherichia coli [8] = assay: Antibacterial activity against Escherichia coli MSCL 332 at 4 mg/ml after 24 hrs by agar dish diffusion method; format: functional, organism-based
Proteus mirabilis [9] = assay: Antibacterial activity against Proteus mirabilis MSCL 590 at 4 mg/ml after 24 hrs by agar dish diffusion method; format: functional, organism-based
Pseudomonas aeruginosa [10] = assay: Antibacterial activity against Pseudomonas aeruginosa MSCL 331 at 4 mg/ml after 24 hrs by agar dish diffusion method; format: functional, organism-based
Candida albicans [11] = assay: Fungicidal activity against Candida albicans MSCL 378 incubated for 24 hrs followed by colony transfer to agar plates for 24 hrs by colony counting based assay; format: functional; details: MSCL 378, 24 h, read-out: MFC99.9
Candida albicans [12] = assay: Antifungal activity against Candida albicans MSCL 378 at 2 mg/ml after 48 hrs by agar dish diffusion method; format: functional; details: MSCL 378, 48 h, read-out: DIZ
Staphylococcus aureus [13] = assay: Antibacterial activity against Staphylococcus aureus MSCL 334 at 2 mg/ml after 24 hrs by agar dish diffusion method; format: functional, organism-based
Proteus mirabilis [14] = assay: Antibacterial activity against Proteus mirabilis MSCL 590 at 2 mg/ml after 24 hrs by agar dish diffusion method; format: functional, organism-based
Staphylococcus aureus [15] = assay: Antibacterial activity against Staphylococcus aureus MSCL 334 at 4 mg/ml after 24 hrs by agar dish diffusion method; format: functional, organism-based
Aspergillus niger [16] = assay: Antifungal activity against Aspergillus niger MSCL 324 at 2 mg/ml after 48 hrs by agar dish diffusion method; format: functional; details: MSCL 324, 48 h, read-out: DIZ
Aspergillus niger [17] = assay: Antifungal activity against Aspergillus niger MSCL 324 after 24 hrs by broth dilution method; format: functional; details: MSCL 324, 24 h
Escherichia coli [18] = assay: Antibacterial activity against Escherichia coli MSCL 332 at 5 mg/ml after 24 hrs by agar dish diffusion method; format: functional; details: MSCL 332, 24 h, read-out: DIZ
Proteus mirabilis [19] = assay: Antibacterial activity against Proteus mirabilis MSCL 590 at 10 mg/ml after 24 hrs by agar dish diffusion method; format: functional; details: MSCL 590, 24 h, read-out: DIZ
CCRF S-180 [20] = assay: Antitumor activity against mouse S180 cells allografted into ICR mouse assessed as tumor growth inhibition at 2.5 mg/kg, sc administered on day 1,2,3 and 7 after 24 hrs tumor transplantation measured on day 9; format: functional; details: CCRF S-180, sc, read-out: TGI
Staphylococcus aureus [21] = assay: Antibacterial activity against Staphylococcus aureus MSCL 334 at 5 mg/ml after 24 hrs by agar dish diffusion method; format: functional
[22] = Cytotoxicity against mouse NIH/3T3 cells assessed as cell viability at 6.25 to 50 ug/ml by neutral red-based assay; details: nih3t3
Aspergillus niger [23] = assay: Antifungal activity against Aspergillus niger MSCL 324 at 10 mg/ml after 48 hrs by agar dish diffusion method; format: functional; details: MSCL 324, 48 h, read-out: DIZ
HT-1080 [24] = assay: Induction of nitric oxide production in human HT1080 cells by Griess assay; format: functional; set-up: concentration or dose not given beside the values
Escherichia coli [25] = assay: Antibacterial activity against Escherichia coli MSCL 332 at 10 mg/ml after 24 hrs by agar dish diffusion method; format: functional; details: MSCL 332, 24 h, read-out: DIZ
Bacillus cereus [26] = assay: Antibacterial activity against Bacillus cereus MSCL 330 at 10 mg/ml after 24 hrs by agar dish diffusion method; format: functional; details: MSCL 330, 24 h, read-out: DIZ
Bacillus cereus [27] = assay: Antibacterial activity against Bacillus cereus MSCL 330 at 5 mg/ml after 24 hrs by agar dish diffusion method; format: functional; details: MSCL 330, 24 h, read-out: DIZ
[28] = (§1) Cytotoxicity against human HT1080 cells assessed as cell viability at 6.25 to 50 ug/ml after 72 hrs by MTT assay; format: functional; details: HT-1080, 72 h, read-out: LC50 (the source's name)
Aspergillus niger [29] = assay: Antifungal activity against Aspergillus niger MSCL 324 at 5 mg/ml after 48 hrs by agar dish diffusion method; format: functional
Pseudomonas aeruginosa [30] = assay: Antibacterial activity against Pseudomonas aeruginosa MSCL 331 at 5 mg/ml after 24 hrs by agar dish diffusion method; format: functional
MG-22A [31] = assay: Cytotoxicity against mouse MG-22A cells assessed as cell viability at 6.25 to 50 ug/ml by crystal violet-based assay; format: functional
CCRF S-180 [32] = assay: Antitumor activity against mouse S180 cells allografted into ICR mouse assessed as tumor growth inhibition at 1.5 mg/kg, sc administered on day 1,2,3 and 7 after 24 hrs tumor transplantation measured on day 9; format: functional, organism-based
[33] = (§2) Cytotoxicity against human HT1080 cells assessed as cell viability at 6.25 to 50 ug/ml by crystal violet-based assay; format: functional; details: HT-1080, read-out: LC50 (the source's name)
Pseudomonas aeruginosa [34] = assay: Antibacterial activity against Pseudomonas aeruginosa MSCL 331 at 10 mg/ml after 24 hrs by agar dish diffusion method; format: functional
Staphylococcus aureus [35] = assay: Antibacterial activity against Staphylococcus aureus MSCL 334 at 10 mg/ml after 24 hrs by agar dish diffusion method; format: functional
MG-22A [36] = assay: Induction of nitric oxide production in mouse MG-22A cells by Griess assay; format: functional; set-up: concentration or dose not given beside the values
Candida albicans [37] = assay: Antifungal activity against Candida albicans MSCL 378 at 10 mg/ml after 48 hrs by agar dish diffusion method; format: functional; details: MSCL 378, 48 h, read-out: DIZ
MG-22A [38] = assay: Cytotoxicity against mouse MG-22A cells assessed as cell viability at 6.25 to 50 ug/ml after 72 hrs by MTT assay; format: functional
Candida albicans [39] = assay: Antifungal activity against Candida albicans MSCL 378 at 5 mg/ml after 48 hrs by agar dish diffusion method; format: functional; details: MSCL 378, 48 h, read-out: DIZ
Proteus mirabilis [40] = assay: Antibacterial activity against Proteus mirabilis MSCL 590 at 5 mg/ml after 24 hrs by agar dish diffusion method; format: functional; details: MSCL 590, 24 h, read-out: DIZ
HT-1080 [41] = assay: as §1; format: functional
HT-1080 [42] = assay: as §2; format: functional
[43] = read-out: LC50 (the source's name)

For `OC(Cn1cncn1)(Cn1cncn1)c1ccc(F)cc1F` [FLUCONAZOLE], the “diameter of the inhibition zone (DIZ)” value (Escherichia coli [1]) was “inactive”, the “diameter of the inhibition zone (DIZ)” value (Bacillus cereus [2]) was “inactive” and the MIC (Candida albicans [3]) was 32 µg/mL (≈ 104 µM). The MFC (Aspergillus niger [4]) was greater than 256 µg/mL, the zone of inhibition at 4000 µg/mL (Aspergillus niger [5]) was 18 mm and the “diameter of the inhibition zone (DIZ)” value (Bacillus cereus [6]) was “inactive”. The “diameter of the inhibition zone (DIZ)” value (Pseudomonas aeruginosa [7]) was “inactive”, the “diameter of the inhibition zone (DIZ)” value (Escherichia coli [8]) was “inactive” and the “diameter of the inhibition zone (DIZ)” value (Proteus mirabilis [9]) was “inactive”. The “diameter of the inhibition zone (DIZ)” value (Pseudomonas aeruginosa [10]) was “inactive”, the MFC (Candida albicans [11]) was greater than 256 µg/mL and the zone of inhibition at 2000 µg/mL (Candida albicans [12]) was 10 mm. The “diameter of the inhibition zone (DIZ)” value (Staphylococcus aureus [13]) was “inactive”, the “diameter of the inhibition zone (DIZ)” value (Proteus mirabilis [14]) was “inactive” and the “diameter of the inhibition zone (DIZ)” value (Staphylococcus aureus [15]) was “inactive”. The zone of inhibition at 2000 µg/mL (Aspergillus niger [16]) was 11 mm and the MIC (Aspergillus niger [17]) was 8 µg/mL (≈ 26.1 µM).
Compound `CCCCCCCCCCCOCCc1sc[n+](C)c1C.[I-]` has a zone of inhibition at 5000 µg/mL (Escherichia coli [18]) of 25 mm, a zone of inhibition at 10000 µg/mL (Proteus mirabilis [19]) of 18 mm and an inhibition in vivo at 2.5 mg/kg (CCRF S-180 [20]) of 56%. For the same compound, the zone of inhibition at 5000 µg/mL (Staphylococcus aureus [21]; MSCL 334, 24 h, read-out: DIZ) was 29 mm, the LC50 [22] was 93300 nM and the zone of inhibition at 10000 µg/mL (Aspergillus niger [23]) was 17 mm. The Activity (HT-1080 [24]) was 150%, the zone of inhibition at 10000 µg/mL (Escherichia coli [25]) was 27 mm and the zone of inhibition at 10000 µg/mL (Bacillus cereus [26]) was 26 mm. The zone of inhibition at 5000 µg/mL (Bacillus cereus [27]) was 25 mm, the CC50 [28] was 1820 nM and the “diameter of the inhibition zone (DIZ)” value (Aspergillus niger [29]) was “inactive”. The zone of inhibition at 5000 µg/mL (Pseudomonas aeruginosa [30]; MSCL 331, 24 h, read-out: DIZ) was 11 mm, the CC50 (MG-22A [31]; [43]) was 1360 nM and the inhibition (CCRF S-180 [32]) was “inactive”. It also gave a CC50 [33] of 1820 nM, a zone of inhibition at 10000 µg/mL (Pseudomonas aeruginosa [34]; MSCL 331, 24 h, read-out: DIZ) of 12 mm and a zone of inhibition at 10000 µg/mL (Staphylococcus aureus [35]; MSCL 334, 24 h, read-out: DIZ) of 32 mm. It also gave an Activity (MG-22A [36]) of 150%, a zone of inhibition at 10000 µg/mL (Candida albicans [37]) of 30 mm and a CC50 (MG-22A [38]; [43]) of 1820 nM. The zone of inhibition at 5000 µg/mL (Candida albicans [39]) was 28 mm and the zone of inhibition at 5000 µg/mL (Proteus mirabilis [40]) was 17 mm.
With `Cc1c(CCO)sc[n+]1C.[I-]` the zone of inhibition at 5000 µg/mL (Escherichia coli [18]) was 10 mm, the zone of inhibition at 10000 µg/mL (Proteus mirabilis [19]) was 8 mm and the “diameter of the inhibition zone (DIZ)” value (Staphylococcus aureus [21]) was “inactive”. It also gave an LC50 [22] of 643 µg/mL, a zone of inhibition at 10000 µg/mL (Aspergillus niger [23]) of 15 mm and an Activity (HT-1080 [24]) of 2%. For the same compound, the zone of inhibition at 10000 µg/mL (Escherichia coli [25]) was 10 mm, the zone of inhibition at 10000 µg/mL (Bacillus cereus [26]) was 8 mm and the zone of inhibition at 5000 µg/mL (Bacillus cereus [27]) was 8 mm. For the same compound, the LC50 (HT-1080 [41]) was “inactive”, the zone of inhibition at 5000 µg/mL (Aspergillus niger [29]; MSCL 324, 48 h, read-out: DIZ) was 9 mm and the “diameter of the inhibition zone (DIZ)” value (Pseudomonas aeruginosa [30]) was “inactive”. The LC50 (MG-22A [31]) was “inactive”, the LC50 (HT-1080 [42]) was “inactive” and the “diameter of the inhibition zone (DIZ)” value (Pseudomonas aeruginosa [34]) was “inactive”. The “diameter of the inhibition zone (DIZ)” value (Staphylococcus aureus [35]) was “inactive”, the Activity (MG-22A [36]) was 3% and the zone of inhibition at 10000 µg/mL (Candida albicans [37]) was 13 mm. For the same compound, the LC50 (MG-22A [38]) was “inactive”, the zone of inhibition at 5000 µg/mL (Candida albicans [39]) was 13 mm and the zone of inhibition at 5000 µg/mL (Proteus mirabilis [40]) was 8 mm.
